# Experimental data from PMC4747989, “Bio-conjugation of antioxidant peptide on surface-modified gold nanoparticles: a novel approach to enhance the radical scavenging property in cancer cell” (Cancer Nanotechnology, 2016).
# Ends that are not written are not given here.
# Columns and labels:
# [1] = test system: MIOM1 (Muller-glial) non-neoplastic cells; assay: Cytotoxicity (MTT) assay, MIOM1; format: cell-based, human; details: 24 and 48 h, 10-100 µM
# Method: (§1) Y79 retinoblastoma and MIOM1 cells were seeded at 5 × 10^3 cells/well in 96-well plates and incubated at 37 °C overnight. The cells were then treated with varying concentrations (10, 30, 60, and 100 µM) of Pep-A and Pep-B in a fresh medium and incubated for specific time periods (24 and 48 h). At the end of the incubation, 10 µl of MTT [3-(4, 5-dimethylthiazol-2-yl)-2, 5-diphenyltetrazolium bromide; 5 mg/ml] was added to the cells with fresh medium (100 µl) and incubated at 37 °C until formazan crystals were formed. The formazan crystals were dissolved in 100 µl of DMSO, and the reading was taken at 570 nm (BioTek, ELISA, USA). Cell viability was calculated as Test OD/Control OD × 100.
# Y79 retinoblastoma cells = assay: Cytotoxicity (MTT) assay, Y79; format: cell-based; details: 24 and 48 h, 10-100 µM
# Method: as §1
# Cytotoxic effects of GNPs and Pep-A were evaluated by MTT assay as per the protocol described in “Cytotoxicity assay” section. Antioxidant effects of GNPs-Pep-A, bioconjugate were evaluated by measuring the cellular ROS and SOD enzyme activity by similar methods as described in “Measurement of intracellular ROS levels on peptide treatment using 2′, 7′ dichlorodihydrofluorescein (DCF) assay” and “SOD activity measurement” sections, respectively. […] Total RNA was isolated using Trizol, and concentration of RNA was quantified using a Nanodrop (Biospec-Nano,Shimadzu, Biotech, Japan). […] Quantification of target gene expression was performed in triplicate in a 20-µl reaction mixture containing 0.1 µg of cDNA, specific primers (Table 1), and SYBR green reagent in 96-well plates on a real-time PCR system (Applied Biosystems, Singapore). GAPDH and β actin were used as internal controls, and the detection was carried out by measuring the binding of fluorescence dye SYBR green to double-stranded DNA. After cycling, relative quantitation of the tested gene cDNA against the internal control was performed using the ΔCT method. The relative amount of gene-specific mRNA to housekeeping gene was calculated using 2^−ΔΔCt, where Ct, the number of cycles at which amplification reaches a threshold, is determined using SDS software version 1.3.
# Y79 cells [2] = assay: Internalization by fluorescence microscopy; format: cell-based; details: Y79 RB cells; FITC-labeled Pep-A, R6G dye-doped GNPs and GNPs-Pep-A; 4 h (method), 3 h (Fig. 5 legend)
# Method: (§2) The Y79 cells were seeded on the lysine (0.01 mg/ml)-coated glass slide. The cells were cultured overnight and treated with different concentrations (50 or 100 µM) of FITC-tagged Pep-A for 4 h, for studying the localization and internalization of the peptide by fluorescence microscopy. The FITC-labeled peptide A molecules (molecular mass 771.2) were custom synthesized (CPS 1468-1, custom peptide synthesis, USV limited India) with ~95 % purity obtained by HPLC method. The GNPs and GNPs-Pep-A conjugates were doped with the R6G dye as described by Kalmodia et al., for the internalization study (Kalmodia et al. [2013]). The internalization of the peptide, R6G-doped GNPs and GNPs-Pep-A after 4 h was qualitatively detected by Zeiss LSM, 710 laser microscope supplied by Axio vision (Germany). […] Y79 cells were seeded at 2 × 10^5 cells/well in six-well plates and treated with 50 and 100 µM concentrations of Pep-A for 4 h. The cells were then spun at 1500 rpm for 5 min, washed with PBS buffer, and then resuspended in FACS buffer. The cells were then analyzed for uptake of the peptide using FACS Calibur (BD Biosciences, CA, USA) by means of CELL QUEST PRO software. The fluorescence of FITC-stained cells was excited with an argon laser at 488 nm, and the emissions were detected at 530 nm. The overlay graph and scattered plot were used to confirm the FITC positive cell population.
# Y79 cells [3] = assay: Peptide uptake by flow cytometry (FACS); format: cell-based; details: 4 h; for FITC positive population in M2: Y79 RB cells, flow cytometry; for M1 population: Y79 cells, histogram statistic in text, in % (unit assumed)
# Method: as §2
internalization by fluorescence microscopy (in words) (Y79 cells [2]),"uptake into the Y79 cells (in words) (Y79 cells [3]; FACS, 50 and 100 µM)","FITC positive population in M2 (Y79 cells [3]; 50 µM FITC-tagged Pep-A, Fig. 4b) [%]","FITC positive population in M2 (Y79 cells [3]; 100 µM FITC-tagged Pep-A, Fig. 4c) [%]","M1 population (Y79 cells [3]; 50 µM of Pep-A, control 99.99)",M1 population (Y79 cells [3]; second mention printed as 50 µM of Pep-A),Substance,cytotoxicity to non-cancerous MIO-M1 cells (in words) [1],cytotoxicity to Y79 cells (in words) (Y79 retinoblastoma cells),cytotoxicity to non-cancerous MIO-M1 cells (in words) ([1]; listed as pep-A),cytotoxicity to Y79 cells (in words) (Y79 retinoblastoma cells; listed as pep-A)
–,–,–,–,–,–,"TRNYYVRAVL [Pep-B, Thr-Arg-Asn-Tyr-Tyr-Val-Arg-Ala-Val-Leu]",no cytotoxicity,no cytotoxicity,–,–
internalization,concentration-dependent uptake,99,99,99.97,99.95,"PHCKRM [Pep-A, Pro-His-Cys-Lys-Arg-Met]",no cytotoxicity,no cytotoxicity,no toxicity,no toxicity
